PubChem BioAssay (NCI)
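The compound was tested at five concentrations on cells cultured in 96-well plates, with a 48-hour exposure period. Here, GI50 denotes the concentration required for 50% inhibition of growth. The concentration for full growth arrest is given as TGI.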

Key:
Test in all cases: NCI-60 cell line screen, 48 h
[1] = system: ACHN renal
[2] = system: CAKI-1 renal
[3] = system: HOP-92 NSCLC
[4] = system: MDA-MB-435
[5] = system: NCI/ADR-RES ovarian
[6] = system: OVCAR-5 ovarian
[7] = system: PC-3 prostate
[8] = system: RXF 393 renal
[9] = system: SF-295 CNS
[10] = system: SK-MEL-2 melanoma

Structure (SMILES)	GI50 [1] [µM]	TGI [1] [µM]	GI50 [2] [µM]	TGI [2] [µM]	GI50 [3] [µM]	TGI [3] [µM]	GI50 [4] [µM]	TGI [4] [µM]	GI50 [5] [µM]	TGI [5] [µM]	GI50 [6] [µM]	TGI [6] [µM]	GI50 [7] [µM]	TGI [7] [µM]	GI50 [8] [µM]	TGI [8] [µM]	GI50 [9] [µM]	TGI [9] [µM]	GI50 [10] [µM]	TGI [10] [µM]
NS(=O)(=O)c1ccc(-n2ncc3c(Nc4ccccc4)ncnc32)cc1	38.5	> 100	23.7	> 100	23.6	> 100	46.2	> 100	19.5	55.4	34.9	> 100	35.1	> 100	29.6	> 100	16.9	53.4	44.3	> 100
O=C(CNc1ccc2c(=S)c3ccccc3[nH]c2c1)Nc1ccccc1-c1ccccc1NC(=O)CNc1ccc2c(=S)c3ccccc3[nH]c2c1	–	28.5	–	75.6	–	51.2	–	> 52	–	> 63	–	53.5	–	> 49.8	–	56.6	–	50.8	–	34.4
COc1c(Cl)ccc2c(-c3nc4cc(Cl)c(F)cc4s3)cc(=O)oc12	4	17.2	1.98	–	1.77	4.07	25	> 66.1	8.76	> 100	15.3	> 53.3	4.46	15.5	5.83	17.7	10.4	52	21.4	87.9
COc1cccc(CCC(=O)c2cc3c(N)c(C(=O)Nc4cccc(Cl)c4C)sc3nc2C)c1	0.743	> 100	0.535	> 100	0.753	> 100	0.197	0.612	0.388	10.4	2.68	> 100	0.746	> 100	0.393	2.95	0.407	20.1	1.36	> 100
NC(=O)c1ccccc1NC(=O)c1ccccc1Cl	> 100	> 100	> 100	> 100	60.7	> 100	58.9	> 100	> 100	> 100	> 100	> 100	> 100	> 100	> 100	> 100	> 100	> 100	> 100	> 100
COc1cc(C2CC(=O)Nc3c2ccc2ccccc32)cc(Br)c1OC (stereo not drawn)	0.798	> 100	0.375	> 100	0.176	2.42	0.138	0.464	0.279	1.13	2.01	> 79.3	0.49	> 100	0.78	7.05	0.316	–	0.695	> 100
O=C(N/N=C/c1ccc(Cl)cc1Cl)c1ccc2nc(-c3ccc(Cl)cc3)[nH]c2c1	1.74	3.17	1.7	3.29	1.67	3.53	1.73	3.35	1.83	4.44	1.85	3.97	1.55	3.3	1.61	3.27	1.86	3.5	2.09	4.64
Clc1cc(-c2ccccc2)nc2ccccc12	–	> 100	–	> 100	–	> 100	–	95.4	–	> 100	–	> 100	–	84.2	–	> 100	–	> 100	–	38
Cc1cnccc1N=Nc1ccc(N(C)C)cc1	–	> 100	–	> 100	–	36.1	–	41.2	–	46.4	–	> 100	–	97.3	–	53	–	57.5	–	–
COc1ccc(Cn2cc3c(c2-c2cc(OC)c(OC)c(OC)c2)CCc2cnoc2-3)cc1N	0.0731	> 100	0.0319	> 100	4.58	> 100	0.0141	0.0384	0.0357	> 100	0.324	> 100	0.0751	> 100	0.0319	> 100	0.0369	> 100	–	–
COc1cc(NC(=O)NCc2ccco2)ccc1-c1ccc(NC(=O)NCc2ccco2)cc1OC	2.84	> 100	10.1	> 100	2.67	7.76	4.14	> 100	> 100	> 100	19.5	> 100	3.34	39.9	1.88	6.22	1.25	14.4	–	–
